In brackets after ≈: the same amount, converted by molar mass. Read-outs that look alike come from different tables or passages of the source.
Columns and labels:
[1] = system: Daphnia magna; assay: Feeding assay (ingestion of fluorescent microparticles); type: in vivo; settings: neonates, 1 mg/L for 24 h
Description: After 24 h, twenty […] transferred in a 12-well plate with 6 mL OECD containing the carboxylate-modified polystyrene, fluorescent red microparticles (2.0 μm mean particle size) at a concentration of 13 mg/L. The animals were exposed to the microplastic for up to 90 min, and media was collected every 15 min to estimate the removed microparticles by fluorescence at Ex 560 Em 590 nm using a TECAN plate reader. The concentration of microparticles in the media was optimized to ensure an excess of microparticles for the accurate quantification of ingestion. Furthermore, we have extensively tested these particles, which show no toxicity to the […] for the short exposure periods used. We performed control experiments with neonates, as they would be more sensitive, for even up to 10 h to microplastics at even higher concentrations (up to 52 mg/L), and all animals from all experiments following the feeding assay were alive and healthy. Fluorescence was expressed to the amount of ingested microparticles using a standard curve. To confirm the ingestion of microparticles in the gut of […], animals were imaged with a stereoscope and fluorescence microscopy using the TRITC filter for carboxyl functionalized particles. […] The animals were fed daily with 2 mL of fresh algae (Chlamydomonas reinhardtii) with a concentration of 6 million cells/mL. […]

[2] = system: acid phosphatase (ACP); assay: Acid phosphatase activity in daphnid homogenate after chronic/transgenerational exposure; type: in vivo, Daphnia magna
Description: (§3) Chronic exposure was performed at 1 mg/L of each NSAID and their 1:1 mixture separately, which was selected as a non-lethal concentration. For enzyme activities in chronic and transgenerational exposures, neonates were cultured for two consecutive generations and following a 21-day recovery period (Figure 1B). […] Media and NSAIDs were renewed twice a week. […] Daphnids were fed daily with 2 mL fresh algae (C. reinhardtii) with a concentration of 6 million cells/mL, and a seaweed extract (Ascophylum nodosum) was supplemented only on the days of media change.
(§4) Five 7, 14, and 21-day-old animals were used per biological replicate and homogenized in 0.5 mL ddH2O using a pestle homogenizer. The homogenate was cleared by centrifugation (12,000× g for 5 min at 5 °C), and the clear supernatant was collected and used to assess the enzyme activity as described elsewhere [28, 41]. 200 μL appropriately diluted sample in buffer was assessed for the activity of phosphatases (in 100 mM acetic acid pH 4.5 for acid phosphatase or 100 mM boric acid pH 9.8 for alkaline phosphatase) using 50 μL of the substrate p-nitrophenyl phosphate (8 mM) and monitoring the production of p-nitrophenol at 405 nm after its alkalinization (with 50 μL 4M NaOH). In addition, the activities of β-galactosidase and lipase were measured with the same experimental conditions by the generation of nitrophenol from the catalysis of o-nitrophenyl-β-galactoside or p-nitrophenyl butyrate, respectively, but in phosphate buffer pH 7.2. […] Protein was quantified by an ultrasensitive Bradford protocol to normalize the results [44].

[3] = system: alkaline phosphatase (ALP)
Description: (§1) Chronic exposure was performed at 1 mg/L of each NSAID and their 1:1 mixture separately, which was selected as a non-lethal concentration. For enzyme activities in chronic and transgenerational exposures, neonates were cultured for two consecutive generations and following a 21-day recovery period (Figure 1B). […] Media and NSAIDs were renewed twice a week. Although the concentration of NSAIDs was not measured throughout the exposure, their renewal twice a week was sufficient to exert their action. […] Daphnids were fed daily with 2 mL fresh algae (C. reinhardtii) with a concentration of 6 million cells/mL, and a seaweed extract (Ascophylum nodosum) was supplemented only on the days of media change.
(§2) Five 7, 14, and 21-day-old animals were used per biological replicate and homogenized in 0.5 mL ddH2O using a pestle homogenizer. The homogenate was cleared by centrifugation (12,000× g for 5 min at 5 °C), and the clear supernatant was collected and used to assess the enzyme activity as described elsewhere. 200 μL appropriately diluted sample in buffer was assessed for the activity of phosphatases (in 100 mM acetic acid pH 4.5 for acid phosphatase or 100 mM boric acid pH 9.8 for alkaline phosphatase) using 50 μL of the substrate p-nitrophenyl phosphate (8 mM) and monitoring the production of p-nitrophenol at 405 nm after its alkalinization (with 50 μL 4M NaOH). In addition, the activities of β-galactosidase and lipase were measured with the same experimental conditions by the generation of nitrophenol from the catalysis of o-nitrophenyl-β-galactoside or p-nitrophenyl butyrate, respectively, but in phosphate buffer pH 7.2. Glutathione-S-transferase (GST) activity was assessed by the reaction of reduced glutathione with 1-chloro-2,4-dinitrobenzene. 200 μL appropriately diluted sample in phosphate buffer pH 7.2 was mixed with 50 μL 2 mM CDNB, and 6 mM reduced glutathione, and the formation of the complex was measured continuously at 340 nm and converted to units of activity with the extinction coefficient. Protein was quantified by an ultrasensitive Bradford protocol to normalize the results.

[4] = system: glutathione-S-transferase (GST)
Description: as §1, §2

[5] = system: β-galactosidase (β-gal)
Description: as §1, §2

[6] = system: lipase (LIP); assay: Lipase activity in daphnid homogenate after chronic/transgenerational exposure; type: in vivo, Daphnia magna
Description: as §3, §4

[7] = system: peptidase (PEP); assay: Peptidase activity in daphnid homogenate after chronic/transgenerational exposure; type: in vivo, Daphnia magna
[8] = system: Thamnocephalus platyurus; settings: after 24 h of exposure; ref [3],[5]; cited from earlier work
[9] = system: Oryzias latipes; design: method as in PMID 27234514, PMID 19336980; settings: after 24 h of exposure; ref [3],[5]; cited from earlier work
[10] = system: D. magna; design: method as in PMID 27234514, PMID 19336980; settings: after 24 h of exposure; ref [3],[5]; cited from earlier work
[11] = system: male zebrafish (Danio rerio); design: method as in PMID 29027214; settings: 96 h, ref [13]; cited from earlier work
[12] = system: patients; design: method as in PMID 26865183; settings: patients receiving it; ref [11]; cited from earlier work
[13] = system: Daphnia magna; assay: Acute toxicity (immobilization) of neonates, 24 h toxicity curves
Description: Daphnids were cultured under a 16 h:8 h of light:dark photoperiod at 20 °C in OECD media (final concentrations 0.29 g CaCl2·2H2O/L, 0.123 g MgSO4·7H2O/L, 0.065 g NaHCO3/L, 0.0058 g KCl/L, 2 μg Na2SeO3/L, pH 7.7) [28]. […] Neonates (<24 h) were collected from the third brood of their mothers and used for experiments. To assess toxicity, 15 neonates were exposed to each NSAID separately, and their 1:1 mixture in a final volume of 50 mL OECD media with four replicates per concentration tested. […] For toxicity, the OECD guidelines state that at least 40 animals (preferably in four groups of 10 animals should be used at each test concentration); however, in our study, we exceeded that number to 60 animals. Toxicity curves were plotted for 24 h exposures, and EC values were calculated using the four-parameter logistic (4PL) model, following the equation Span = Top − Bottom and Y = Bottom + (Top − Bottom)/(1 + 10^((LogIC50 − X) × HillSlope)), using the GraphPad software. The parameters top and bottom were commonly fixed to 100 and 0, accordingly. Mortality in daphnids was assessed as their immobilization [27].

[14] = 1 mg/L, age 7 days, first generation
[15] = 1 mg/L, age 14 days, first generation
[16] = 1 mg/L, age 21 days, 2nd generation
[17] = 1 mg/L, age 21 days, first generation
[18] = age 21 days, 3rd generation recovery in clean OECD media after two generations at 1 mg/L
[19] = neonates, 24 h exposure, immobilization

For `COc1ccc2c(c1)c(CC(=O)O)c(C)n2C(=O)c1ccc(Cl)cc1` [Indomethacin], the “reduction of feeding rate compared to DMSO” value [1] was 35%, the ACP enzyme activity [2, 14] was 6.82 ± 0.51 units/mg protein and the ACP enzyme activity [2, 15] was 6.02 ± 0.71 units/mg protein. For the same compound, the ACP enzyme activity [2, 16] was 2.67 ± 0.15 units/mg protein, the ACP enzyme activity [2, 17] was 2.84 ± 0.13 units/mg protein and the “change of ACP activity compared with DMSO” value [2, 17] was −10%. For the same compound, the ACP enzyme activity [2, 18] was 3.21 ± 0.28 units/mg protein, the ALP enzyme activity [3, 14] was 6.22 ± 0.21 units/mg protein and the “change of ALP activity compared with DMSO” value [3, 14] was −13%. The ALP enzyme activity [3, 15] was 3.05 ± 0.29 units/mg protein, the ALP enzyme activity [3, 16] was 3.8 ± 0.18 units/mg protein and the ALP enzyme activity [3, 17] was 5.05 ± 0.17 units/mg protein. For the same compound, the ALP enzyme activity [3, 18] was 4.16 ± 0.24 units/mg protein, the GST enzyme activity [4, 14] was 107.9 ± 11.6 munits/mg protein and the GST enzyme activity [4, 15] was 144.7 ± 5.4 munits/mg protein. The GST enzyme activity [4, 16] was 94.6 ± 2.9 munits/mg protein, the “change of GST activity compared with DMSO” value [4, 16] was −9% and the GST enzyme activity [4, 17] was 52.3 ± 1.5 munits/mg protein. The GST enzyme activity [4, 18] was 154.7 ± 4.2 munits/mg protein, the “change of β-gal activity compared with DMSO” value [5, 14] was −40% and the β-gal enzyme activity [5, 14] was 0.91 ± 0.14 units/mg protein. The β-gal enzyme activity [5, 15] was 2.23 ± 0.39 units/mg protein, the β-gal enzyme activity [5, 16] was 4.7 ± 0.23 units/mg protein and the “change of β-gal activity compared with DMSO” value [5, 17] was “+11%”. The β-gal enzyme activity [5, 17] was 5.93 ± 0.19 units/mg protein, the β-gal enzyme activity [5, 18] was 5.03 ± 0.44 units/mg protein and the LIP enzyme activity [6, 14] was 72.94 ± 11.09 units/mg protein. For the same compound, the “change of LIP activity compared with DMSO” value [6, 14] was −47%, the LIP enzyme activity [6, 15] was 193.84 ± 25.81 units/mg protein and the LIP enzyme activity [6, 16] was 56.41 ± 3.09 units/mg protein. For the same compound, the “change of LIP activity compared with DMSO” value [6, 16] was −15%, the LIP enzyme activity [6, 17] was 90.86 ± 0.42 units/mg protein and the LIP enzyme activity [6, 18] was 51.19 ± 2.04 units/mg protein. It also gave a PEP enzyme activity [7, 14] of 27.26 ± 5.01 units/mg protein, a PEP enzyme activity [7, 15] of 1.94 ± 0.06 units/mg protein and a PEP enzyme activity [7, 16] of 6.81 ± 0.26 units/mg protein. The “change of PEP activity compared with DMSO” value [7, 16] was −14%, the PEP enzyme activity [7, 17] was 10.82 ± 0.6 units/mg protein and the “change of PEP activity compared with DMSO” value [7, 17] was “+16%”. The PEP enzyme activity [7, 18] was 5.33 ± 0.49 units/mg protein, the lethal concentration [8] was 16.14 mg/L and the lethal concentration [9] was 81.92 mg/L. For the same compound, the lethal concentration [10] was 22.38 mg/L, the EC50 [11] was 76.30 µg/mL (≈ 213 µM) and the “patients with adverse effects” value [12] was 30–60%. For the same compound, the EC50 ([13]; Daphnia magna, 24 h) was 17.5 µg/mL (≈ 48.8 µM), the EC1 [13, 19] was 6.61 mg/L and the EC5 [13, 19] was 9.37 mg/L. For the same compound, the EC10 [13, 19] was 10.97 µg/mL (≈ 30.7 µM) and the EC20 [13, 19] was 13.02 µg/mL (≈ 36.4 µM).

Source: article PMC10145367, “Acute and Transgenerational Effects of Non-Steroidal Anti-Inflammatory Drugs on Daphnia magna” (Toxics, 2023)
